In patent US4708961A, “Acylindole derivatives and their use in pharmaceutical compositions” (priority 1983, dated 1987):

Legend:
[1] = system: collagen induced platelet-aggregation (Platelet Rich Plasma); test: Inhibition of platelet-aggregation (collagen induced, aggregometer, rat PRP); assay type: cell-based, Wistar-strain male rats; settings: for Platelet Aggregation (%): control 58 ± 1; for IC50: same manner (collagen), male rats weighing 500-700 g
Description: (2) Inhibition of platelet-aggregation
Groups of 5 Wistar-strain male rats (weighing 250-300 g) were used for collection of blood from abdominal aorta in the presence of sodium citric acid under anesthesia with ether. The obtained material was centrifuged at 200×g for 8 minutes to give Platelet Rich Plasma (PRP) from the supernatant. Further centrifugation was carried out at 1500×g for 15 minutes to obtain Platelet Poor Plasma (PPP) from the supernatant.
Platelet-aggregation was measured by aggregometer. 5 μl of the solution of the examined compound was added to 450 μl of the above-mentioned PRP and incubated for 1 minute at 37° C., after that a coagulant was added thereto. Collagen was used as the coagulant (final concentration was 4 μg/ml). Test compound was dissolved in DMSO (dimethylsulfoxide).
In the same manner as indicated above using Wister strain male rats weighing 500-700 g, example of the results is shown in Table 2.

ddy-strain male mice = test: Acute toxicity test; assay type: in vivo; settings: 4000 mg/kg, orally administered, groups of 5 ddy-strain male mice fasted for 18 hours
Description: 4000 mg/kg of the compound of the invention were orally administered to groups of 5 ddy-strain male mice which were fasted for 18 hours.

[2] = 300 μM, collagen 4 μg/ml, PRP of Wistar-strain male rats 250-300 g, 1 minute at 37° C.
[3] = Rattus norvegicus, Platelet, 1 min, 300 μM, collagen 4 μg/ml, PRP of Wistar-strain male rats 250-300 g, 1 minute at 37° C., read-out: Inhibition rate (%)

| SMILES | Platelet Aggregation (%) [1, 2] [%] | inhibition at 300 µM [1, 3] [%] | IC50 ([1]; Rattus norvegicus, Platelet) [µM] | mortality (none of the mice were died) (ddy-strain male mice) | Platelet Aggregation (%) ([1]; 200 μM, collagen 4 μg/ml, PRP of Wistar-strain male rats 250-300 g, 1 minute at 37° C.) | inhibition at 200 µM ([1]; Rattus norvegicus, Platelet, 1 min, 200 μM, collagen 4 μg/ml, PRP of Wistar-strain male rats 250-300 g, 1 minute at 37° C., read-out: Inhibition rate (%)) [%] |
| --- | --- | --- | --- | --- | --- | --- |
| CC(=O)Oc1ccccc1C(=O)O [Aspirin, reference compound] | 23 ± 4 | 60 | – | – | – | – |
| COc1ccc2c(c1)c(CC(=O)O)c(C)n2C(=O)c1ccc(Cl)cc1 [Indomethacin, reference compound] | – | – | 27 | – | – | – |
| COc1ccc(C(=O)c2c[nH]c3ccccc23)cc1 [compound 1, 3-(p-methoxybenzoyl)indole] | 22 ± 5 | 62 | 30 | none of the mice were died | – | – |
| COc1ccccc1C(=O)c1c[nH]c2ccccc12 [compound 2, 3-(o-methoxybenzoyl)indole] | 7 ± 4 | – | 29 | none of the mice were died | – | – |
| O=C(c1ccc(O)cc1)c1c[nH]c2ccccc12 [compound 3, 3-(p-hydroxybenzoyl)indole] | 7 ± 3 | – | 27 | none of the mice were died | – | – |
| O=C(c1ccccc1O)c1c[nH]c2ccccc12 [compound 4, 3-(o-hydroxybenzoyl)indole] | 8 ± 5 | – | 23 | none of the mice were died | – | – |
| COc1ccc(C(=O)c2cn(C(C)=O)c3ccccc23)cc1 [compound 5, 3-(p-methoxybenzoyl)-N-acetylindole] | – | – | 29 | none of the mice were died | 33 ± 1 | 43 |
| COc1ccccc1C(=O)c1cn(C(C)=O)c2ccccc12 [compound 6, 3-(o-methoxybenzoyl)-N-acetylindole] | 9 ± 3 | 84 | 18 | none of the mice were died | – | – |
| CC(=O)Oc1ccc(C(=O)c2cn(C(C)=O)c3ccccc23)cc1 [compound 7, 3-(p-acetoxybenzoyl)-N-acetylindole] | 7 ± 1 | 88 | 21 | none of the mice were died | – | – |
| COc1ccc(C(=O)c2cn(C)c3ccccc23)cc1 [compound 8, 3-(p-methoxybenzoyl)-N-methylindole] | – | – | 23 | none of the mice were died | – | – |
| CC(C)Oc1ccc(C(=O)c2c[nH]c3ccccc23)cc1 [compound 9, 3-(p-isopropoxybenzoyl)indole] | 8 ± 3 | – | – | none of the mice were died | – | – |
| O=C(c1ccc(OCC(O)CO)cc1)c1c[nH]c2ccccc12 (stereo not drawn) [compound 16, 3-[p-(2,3-dihydroxypropoxy)benzoyl]indole] | – | – | 61 | – | – | – |
| O=C(c1ccc(O)cc1)c1cn(CC(O)CO)c2ccccc12 (stereo not drawn) [compound 17, 3-(p-hydroxybenzoyl)-N-(2,3-dihydroxypropyl)indole] | – | – | 85 | – | – | – |
| O=C(c1ccc(OCC(O)CO)cc1)c1cn(CC(O)CO)c2ccccc12 (stereo not drawn) [compound 18, 3-[p-(2,3-dihydroxypropoxy)benzoyl]-N-(2,3-dihydroxypropyl)indole] | – | – | 94 | – | – | – |
| O=C(c1ccccc1O)c1cn(CC(O)CO)c2ccccc12 (stereo not drawn) [compound 19, 3-(o-hydroxybenzoyl)-N-(2,3-dihydroxypropyl)indole] | – | – | 81 | – | – | – |
| O=C(c1ccccc1OCC(O)CO)c1cn(CC(O)CO)c2ccccc12 (stereo not drawn) [compound 20] | – | – | 108 | – | – | – |
| O=C(c1ccc(OCCCO)cc1)c1c[nH]c2ccccc12 [compound 23, 3-[p-(3-hydroxypropoxy)benzoyl]indole] | – | – | 52 | – | – | – |
| O=C(c1ccc(OCCCO)cc1)c1cn(CCCO)c2ccccc12 [compound 24, 3-[p-(3-hydroxypropoxy)benzoyl]-N-(3-hydroxypropyl)indole] | – | – | 77 | – | – | – |
